Consider 3 compounds from US20210346342A1, “COMBINATION OF AN UROLITHIN WITH AN IMMUNOTHERAPY TREATMENT” (Amazentis SA, priority 2019, published 2021).

Data set [1] deals with AOM model of colorectal cancer. The experiment in a line: AOM model of colorectal cancer: lesion count/size (H&E) and anti-CD3 immunostaining of colonic mucosa. The class given is in vivo, mouse. As for the experimental part:
• A model of sporadic tumourigenesis can be obtained applying repetitively azoxymethane (AOM), without dextran sodium sulphate, to female wild-type FVB mice. In particular, tumours are induced by six weekly intraperitoneal injections of AOM (10 mg/kg) in wild type animals. Mice are analysed 18-24 weeks later. Urolithin A is applied in the diet at a dose of 50 or 200 mg/kg mouse a day (mpk), or control lab diet one week before starting the 6 injections of AOM, during the 6 weeks of injections with AOM, and for approximately 20 weeks following these injections, for a total of ca. 27-30 weeks. At the end of the treatment period, mice are euthanized by cervical dislocation for the collection of intestinal tissues.

The test system of data set [2] is APTK organoid xenograft tumours. The experiment in a line: APTK organoid subcutaneous xenograft tumour model: tumour volume, CD3 and cleaved caspase 3 staining. The class given is in vivo, mouse. The text has this: • Colorectal cancer organoids (from here on also referred to as APTK organoids) are generated by the selective introduction of tumourigenic mutation in the gene APC (A), p53 (P), Tgf-beta1 (T) and K-ras (K). Since APTK organoids have been developed on a C57/BL6 genetic background, they can be transplanted to generate tumours in wild type BL6 mice with an intact immune system that allows to study the immune response towards the developing tumour. One week prior to subcutaneous transplantation, the mice are fed either a Urolithin A-containing or control diet. Tumour growth is assessed by calliper measurements. The resulting tumours are analysed histologically.

The test system is the same in data set [3]. Put plainly: APTK organoid model with depletion of CD8+ cytotoxic T cells by anti-CD8. The class given is in vivo, mouse. The settings on record: UA 200 mpk diet plus anti-CD8 150 μg i.p. every second day, FIG. 7. As for the experimental part:
For this model, C57/BL6 were maintained on a Urolithin A 200 mpk or control diet. One week after starting the dietary intervention, mice were transplanted subcutaneously with APTK organoids as described above. Starting at day 3, these mice received 5 intraperitoneal injections (150 μg every second day) of an anti-CD8 or isotype control antibody (BioXCell) to deplete CD8+ cytotoxic T cells. As in the previous experiments, tumour growth is measured by calliper measurements.

For data set [4] the test system is unchanged. Put plainly: APTK organoid model combined with anti-PD1 injections. The class given is in vivo, mouse. The following applies: Urolithin A 200 mpk with isotype control antibody vs anti-PD1 200 μg i.p. every third day, FIG. 8. How it is done: • C57BL/6 mice are transplanted subcutaneously with APTK organoids as described in Example 2 and either, fed with a Urolithin A 200 mpk or control diet (initiated one week prior to subcutaneous injection) and receive 4 intraperitoneal injections (200 μg every third day, starting day 5) of a blocking anti-PD1 or isotype control antibody (BioXCell).

A short description of data set [5]: Pharmacokinetic profile of orally administered urolithin A. Type of data set: in vivo. The following applies: 250 mg to 1000 mg urolithin A compared with 2000 mg.
For data set [6], the system named is previously treated, unresectable melanoma. The following applies: patients with previously treated; cited from earlier work.
The test system of data set [7] is advanced, previously untreated non-small cell lung cancer. The settings on record: patients with advanced; cited from earlier work.

Take `O=c1oc2cc(O)ccc2c2ccc(O)cc12` [Urolithin A]: in data set [1] (UA 200 mpk in diet vs control diet, H&E of colonic tissue, FIG. 2), the number of lesions result is recorded as “significantly decreases the number of lesions”. Besides, the “CD3 positive cells in colonic mucosa” value in data set [1] (UA 200 mpk vs control, anti-CD3 immunostaining, FIG. 3) is “tend to have more CD3 positive cells”. Moreover, the size of lesions result in data set [1] (UA treated animals vs control diet, FIG. 2) was “appear to be of smaller size”. In addition, the tumour volume result in data set [2] (UA 200 mpk diet vs control diet, calliper, FIG. 4) is reported as “significant lower tumour volume”. Moreover, in data set [2] (UA 200 mpk vs control, FIG. 5), the “CD3 positive cells at the invasive margin” value was “less CD3 positive cells at the invasive margin” and the “CD3 positive cells inside the core of the tumours” value is recorded as “more CD3 positive cells inside the core of the tumours”. Moreover, the “cleaved Casp3 staining (marker of apoptosis)” value in data set [2] (UA 200 mpk vs control, FIG. 6) was “significant increase of cleaved Casp3 staining”. The “anti-tumoural effect (tumour volume) when CD8+ cytotoxic T cells are abrogated” value in data set [3] was “anti-tumoural effect of UA is lost”. In addition, the “tumour growth, Urolithin A alone versus anti-PD1 antibody treatment” value in data set [4] is “no difference was observed”. Further, the pharmacokinetic profile result in data set [5] is “surprisingly good pharmacokinetic profile”.
nivolumab: in data set [6], the progression free survival is 9.7 months and the response rate is listed as 31%. Further, the response rate in data set [7] is given as 30%.
Regarding “pembrolizumab: humanized monoclonal IgG4 antibody directed against human cell surface receptor PD-1”, in data set [6], the progression free survival is 50 weeks. Moreover, the response rate in data set [6] is 34%; in data set [7] it was 26%.
